Results reported in PubChem BioAssay (NCI).
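All cell lines were grown in 96-well plates and treated with compound for 48 hours. At the GI50, growth is halved. At the TGI there is no net growth.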

What was measured:
Assay in all cases: NCI anticancer screen, dose series, 48 h
MCF7 breast = tested on: MCF7 breast
T-47D breast = tested on: T-47D breast
EKVX NSCLC = tested on: EKVX NSCLC
COLO 205 colon = tested on: COLO 205 colon
SK-MEL-5 melanoma = tested on: SK-MEL-5 melanoma
HS 578T breast = tested on: HS 578T breast
NCI/ADR-RES ovarian = tested on: NCI/ADR-RES ovarian
PC-3 prostate = tested on: PC-3 prostate
K-562 leukemia = tested on: K-562 leukemia
DU-145 prostate = tested on: DU-145 prostate

Row | SMILES | GI50 (MCF7 breast) [µM] | TGI (MCF7 breast) [µM] | GI50 (T-47D breast) [µM] | TGI (T-47D breast) [µM] | GI50 (EKVX NSCLC) [µM] | TGI (EKVX NSCLC) [µM] | GI50 (COLO 205 colon) [µM] | TGI (COLO 205 colon) [µM] | GI50 (SK-MEL-5 melanoma) [µM] | TGI (SK-MEL-5 melanoma) [µM] | GI50 (HS 578T breast) [µM] | TGI (HS 578T breast) [µM] | TGI (NCI/ADR-RES ovarian) [µM] | GI50 (PC-3 prostate) [µM] | TGI (PC-3 prostate) [µM] | GI50 (K-562 leukemia) [µM] | TGI (K-562 leukemia) [µM] | GI50 (DU-145 prostate) [µM] | TGI (DU-145 prostate) [µM] | GI50 (NCI/ADR-RES ovarian) [µM]
1 | COCCOC(=O)NC(=O)Nc1ccc(/C(=N/O)c2ccc(Cl)cc2)cc1 | 0.0989 | 37.9 | 8.82 | 50.5 | 0.161 | > 89.8 | 0.14 | 2.28 | 0.0817 | 2.85 | 0.157 | 34.3 | 7.31 | 0.141 | 64.2 | 0.0633 | 31.9 | 0.121 | 20.4 | 
2 | CN1CCCN(C)C1c1cc([N+](=O)[O-])ccc1O |  | 63.3 |  | > 100 |  | > 100 |  | > 100 |  | 48.4 |  | 67.8 | > 100 |  | 72.9 |  | > 100 |  | > 100 | 
3 | Clc1ccc2[nH]cc(-c3nc(-c4c[nH]c5ncccc45)cs3)c2c1 | 2.46 | 16.5 | 4.88 | 33.7 | 2.16 | 22.3 | 1.73 | 13.3 | 2.98 | 12.5 | 7.59 | > 100 | 16.9 | 3.5 | 28 | 2.42 | > 100 | 4.23 | 21.4 | 3.09
4 | COC(=O)c1c2c(c(C)[n+]([O-])c1C)C(=O)C=C(NCc1ccc(F)c(F)c1)C2=O | 0.255 | 0.891 | 0.127 | 1.02 | 0.685 | 2.26 | 0.257 | 0.713 | 0.167 | 0.308 | 1.89 | 6.17 | 1.65 | 0.279 | 2.42 | 0.0745 |  | 1.06 | 2.28 | 0.313
5 | O=C1C=C(Br)C(=O)C12CCc1ccccc12 (stereo not drawn) |  | 48.5 |  | 50.4 |  | 62 |  | 11.2 |  | 34.6 |  | > 82.5 | 81.3 |  | 32.5 |  | 9.26 |  | 31.7 | 
6 | Cc1nc2sc(C(=O)Nc3cccc4ccccc34)c(N)c2cc1C(=O)c1ccccc1 | 1.53 | > 50 | 3.64 | > 50 | 2.95 | > 50 | 1.65 | > 50 | 1.92 | 12.4 | 1.3 | > 50 | > 50 | 1.78 | > 50 | 0.93 | > 50 | 1.94 | > 50 | 1.43
7 | NNc1cccc(/C=C/c2ccccc2)cc1=O | 8.32 | > 100 | 5.36 | 92.5 | 3.27 | 35.8 | 7.76 | > 100 | 11.7 | > 100 | 18.5 | > 100 | > 100 | 7.87 | > 100 | 3.13 | > 100 | 7.04 | > 100 | 4.36
8 | O=c1nc(Nc2cccc(Cl)c2)oc2cc(Cl)oc(=O)c12 | 4.33 | 20.9 | 5.29 | 27.1 | 16.9 | 39.8 | 10.8 | 23.7 | 18.2 | 54.5 | 2.81 | 17.4 | 70.5 | 10.8 | 66.5 | 16.4 | > 100 | 10.4 | 25.3 | 13.4
9 | CCOC(=O)C(CO)c1nc2c([nH]c1=O)c(=O)n(C)c(=O)n2C (stereo not drawn) |  | > 100 |  | 60.8 |  | > 100 |  | > 100 |  | > 100 |  | > 100 | > 100 |  | > 100 |  | > 100 |  | > 100 | 
10 | CC(C)c1ccc(/C(C(=O)O)=C(\O)C(=O)O)cc1 |  | > 100 |  | > 100 |  | > 100 |  | > 100 |  | > 100 |  | > 100 | > 100 |  | > 100 |  | > 100 |  | > 100 | 
11 | C=C1C(=O)O[C@H]2[C@H]1CC/C(COC(=O)NCc1ccc(Cn3c(=O)sn(CCCCl)c3=O)cc1)=C\CC[C@@]1(C)O[C@@H]21 | 1.71 | 4.54 | 1.97 | 5.58 | 2.82 | 12.2 | 2.04 | 3.92 | 3.72 | 14.1 | 5.64 | 49 | > 100 | 2.13 | 5.05 | 0.726 | > 100 | 1.64 | 3.15 | 26.9
12 | N#Cc1cnc2cc(OC[C@@H](O)CO)c(NC(=O)CC3CSSC3)cc2c1Nc1ccc(OCc2cccc(F)c2)c(Cl)c1 | 0.0857 | 0.182 | 0.646 | 1.59 | 0.265 | 1.18 | 0.813 | 1.63 | 0.743 | 1.43 | 0.105 | 0.282 | 3.16 | 0.0888 | 0.198 | 0.0945 | 0.207 | 0.131 | 0.398 | 2.19
13 | CCCCCCCCCCN(CCCCCCCCCC)CC(=O)c1ccc2cc(Br)c3ccccc3c2c1 | 1.8 | 3.25 | 2.44 | 5.98 | 5.31 | 19.8 | 1.66 | 3.16 | 1.74 | 3.28 | 3.59 | 21.7 | 3.52 | 2.67 | 8.95 | 2.05 | 4.84 | 3.69 | 10.3 | 1.79
14 | OCCSCc1ccccc1 |  | > 100 |  | > 100 |  | > 100 |  | > 100 |  | > 100 |  | > 100 | > 100 |  | > 100 |  | > 100 |  | > 100 | 
